In US20050113286A1, “Methods for treating congestive heart failure” (priority 2002, published 2005):

Key:
[1] = system: patients with chronic decompensated HF; assay: FUSION I: global clinical status, 7-point ordinal scale; assay type: in vivo, human; details: for Investigators' assessment: Reported improvement from baseline (%): moderately or markedly improved; for Investigators' assessment: Mean change from baseline / Patients' assessment: Mean change from baseline: scale −3 to +3
Protocol: (§1) At weeks 4, 8, and 12, the change from baseline global clinical status was assessed by both the patient and the investigator; assessments were rated on a 7-point ordinal scale from markedly worse (−3) to markedly better (+3).^1l,12 In addition, patients' assessment of quality of life was measured at baseline and at weeks 4, 8, and 12 using the Minnesota Living With HF questionnaire. (Rector TS, Kubo SH, Cohn J N. Patients' self-assessment of their congestive heart failure. Part 2: Content, reliability and validity of a new measure, The Minnesota Living with Heart Failure Questionnaire. Heart Failure 1987;October/November:198-209.)

[2] = system: patients with chronic decompensated HF; assay: FUSION I: quality of life, Minnesota Living With HF questionnaire; assay type: in vivo, human; details: weeks 4, 8, and 12
Protocol: as §1

[3] = system: patients with acutely decompensated congestive heart failure; details: in vivo; cited from earlier work
[4] = system: patients with chronic decompensated HF; assay: FUSION I: left ventricular ejection fraction by echocardiography; assay type: in vivo, human
Source text: Surrogate measures with mechanistic implications included measures of serum aldosterone, serum endothelin-1, and serial measurements of ventricular function using ejection fractions derived from echocardiography. Pre-infusion aldosterone and endothelin-1 concentrations were collected and analyzed at a core lab (The Mayo Clinic, Rochester, Minn.) at weeks 1, 4, 8, and 12; post-infusion concentrations were collected at weeks 1 and 12. Left ventricular ejection fractions were serially measured and read at a core lab (Midwest Heart Foundation Echocardiographic Core Laboratory, Lombard, Ill.).

[5] = system: acute decompensated heart failure; details: compared with milrinone; cited from earlier work
[6] = week 4, both nesiritide groups, count in cell 125
[7] = week 12, 0.01 μg/kg/min, count in cell 51

## Nesiritide: a recombinant form of human B-type natriuretic peptide (BNP)
[1]; 0.01-μg/kg/min group, p≦0.004 at all time points
  Global clinical status, investigators' assessments, compared with usual-care group: significant improvement
[1]; all treatment groups
  Global clinical status, patients' assessments, among treatment groups: no significant differences
[1]; week 4, 0.005 μg/kg/min, count in cell 62
  Patients' assessment: Reported improvement from baseline (%): 62 (50%)
[1]; week 4, 0.005 μg/kg/min, count in cell 63
  Investigators' assessment: Reported improvement from baseline (%): 63 (29%)
[1]; week 4, 0.005 μg/kg/min
  Investigators' assessment: Mean change from baseline: 0.9 ± 1.28
  Patients' assessment: Mean change from baseline: 1.3 ± 1.33
[1]; week 4, 0.01 μg/kg/min, count in cell 63
  Patients' assessment: Reported improvement from baseline (%): 63 (51%)
[1]; week 4, 0.01 μg/kg/min, count in cell 62
  Investigators' assessment: Reported improvement from baseline (%): 62 (47%)
[1]; week 4, 0.01 μg/kg/min
  Patients' assessment: Mean change from baseline: 1.4 ± 1.20
[1]; week 4, 0.01 μg/kg/min, p < 0.05 compared with usual care
  Investigators' assessment: Mean change from baseline: 1.1 ± 1.28
[1]; [6]
  Patients' assessment: Reported improvement from baseline (%): 125 (50%)
  Investigators' assessment: Reported improvement from baseline (%): 125 (38%)
[1]; week 4, both nesiritide groups
  Patients' assessment: Mean change from baseline: 1.4 ± 1.26
[1]; week 4, both nesiritide groups, p < 0.05 compared with usual care
  Investigators' assessment: Mean change from baseline: 1.0 ± 1.28
[1]; week 8, 0.005 μg/kg/min, count in cell 53
  Patients' assessment: Reported improvement from baseline (%): 53 (72%)
[1]; week 8, 0.005 μg/kg/min, count in cell 50
  Investigators' assessment: Reported improvement from baseline (%): 50 (54%)
[1]; week 8, 0.005 μg/kg/min
  Patients' assessment: Mean change from baseline: 1.7 ± 1.26
[1]; week 8, 0.005 μg/kg/min, p < 0.05 compared with usual care
  Investigators' assessment: Mean change from baseline: 1.3 ± 1.35
[1]; week 8, 0.01 μg/kg/min, count in cell 56
  Patients' assessment: Reported improvement from baseline (%): 56 (68%)
[1]; week 8, 0.01 μg/kg/min, count in cell 54
  Investigators' assessment: Reported improvement from baseline (%): 54 (59%)
[1]; week 8, 0.01 μg/kg/min
  Patients' assessment: Mean change from baseline: 1.8 ± 1.26
[1]; week 8, 0.01 μg/kg/min, p < 0.05 compared with usual care
  Investigators' assessment: Mean change from baseline: 1.6 ± 1.19
[1]; week 8, both nesiritide groups, count in cell 109
  Patients' assessment: Reported improvement from baseline (%): 109 (70%)
[1]; week 8, both nesiritide groups, count in cell 104
  Investigators' assessment: Reported improvement from baseline (%): 104 (57%)
[1]; week 8, both nesiritide groups
  Patients' assessment: Mean change from baseline: 1.8 ± 1.25
[1]; week 8, both nesiritide groups, p < 0.05 compared with usual care
  Investigators' assessment: Mean change from baseline: 1.4 ± 1.27
[1]; week 12, 0.005 μg/kg/min, count in cell 54
  Patients' assessment: Reported improvement from baseline (%): 54 (76%)
[1]; week 12, 0.005 μg/kg/min, count in cell 51
  Investigators' assessment: Reported improvement from baseline (%): 51 (55%)
[1]; week 12, 0.005 μg/kg/min
  Patients' assessment: Mean change from baseline: 1.9 ± 1.39
[1]; week 12, 0.005 μg/kg/min, p < 0.05 compared with usual care
  Investigators' assessment: Mean change from baseline: 1.4 ± 1.31
[1]; [7]
  Patients' assessment: Reported improvement from baseline (%): 51 (55%)
  Investigators' assessment: Reported improvement from baseline (%): 51 (59%)
[1]; week 12, 0.01 μg/kg/min
  Patients' assessment: Mean change from baseline: 1.7 ± 1.09
[1]; week 12, 0.01 μg/kg/min, p < 0.05 compared with usual care
  Investigators' assessment: Mean change from baseline: 1.7 ± 1.16
[1]; week 12, both nesiritide groups, count in cell 105
  Patients' assessment: Reported improvement from baseline (%): 105 (66%)
[1]; week 12, both nesiritide groups, count in cell 102
  Investigators' assessment: Reported improvement from baseline (%): 102 (57%)
[1]; week 12, both nesiritide groups
  Patients' assessment: Mean change from baseline: 1.8 ± 1.25
[1]; week 12, both nesiritide groups, p < 0.05 compared with usual care
  Investigators' assessment: Mean change from baseline: 1.5 ± 1.24
[2]
  Quality of life, between treatment groups: no significant differences
[2]; all treatment groups
  Quality of life compared with baseline: significant improvement
[3]
  Ventricular rhythm disturbances: did not engender ventricular rhythm disturbances
[4]; 0.005-μg/kg/min
  Mean change in ejection fraction from baseline to week 12: +4.0±3.3%
[4]; 0.01-μg/kg/min, p=0.03 compared with the usual-care group
  Mean change in ejection fraction from baseline to week 12: +5.3±5.0%
[5]
  Length of stay: shorter length of stay
  Readmissions: fewer readmissions
